Source: article PMC11876601 (Molecular Systems Biology, 2025)
Read-outs that look alike come from different tables or passages of the source.

Assays:
[1] = test system: TNK1; conditions: cited from earlier work
[2] = test system: TNK2; conditions: cited from earlier work
[3] = test system: FLT3; conditions: cited from earlier work
[4] = test system: IRAK4; conditions: cited from earlier work
[5] = test system: MARK4; conditions: cited from earlier work
[6] = test system: PKN2; conditions: cited from earlier work
[7] = test system: PRKD2; conditions: cited from earlier work
[8] = target: T1, ATR (Homo sapiens, UniProt Q13535); test: Kinobeads competition pulldown in AsPC-1 lysate; assay type: binding
T1 construct: endogenous in cells; host or cells: AsPC-1 lysate
Method: This was followed by incubation with Kinobeads ε (17.5 µl of settled beads) for 30 min at 4 °C to enrich kinases. […] Enriched proteins were reduced with 50 mM DTT in 8 M urea, 40 mM Tris-HCl, pH 7.4 for 30 min at room temperature, and alkylated with 55 mM chloroacetamide. After reducing the urea concentration to 1–2 M, proteins were digested with trypsin at 37 °C for 16 h. Subsequently, eluted peptides were desalted using SepPak tC18 µElution plates (Waters), freeze-dried by vacuum centrifugation, and stored at −20 °C.
For LC-MS/MS, dried peptides were reconstituted in 0.1% formic acid and analyzed on a Dionex Ultimate3000 nano HPLC (Thermo Scientific) coupled to an Orbitrap Fusion Tribrid mass spectrometer (Thermo Scientific), which was run in data-dependent mode. Peptides were first delivered to a trap column (100 µm × 2 cm, packed in-house with Reprosil-Gold C18 ODS-3 5 µm resin, Dr. Maisch, Ammerbuch) and subsequently washed with solvent A0 (0.1% formic acid in HPLC grade water) at 5 µl/min for 10 min. […] For MS2, up to 12 peptide precursors were isolated (isolation width of 1.2 Th) and subjected to HCD fragmentation using 30% normalized collision energy. […] The duration of dynamic exclusion was set to 30 s.
Oxidized methionine and N-terminal acetylation were set as variable modification, and cysteine carbamidomethylation was set as fixed modification. Label-free quantification (LFQ) and match-between-runs were enabled. All searches were performed with 1% PSM and protein FDR.
Proteins were filtered by potential contaminants, reversed hits and proteins identified only by site. Residual binding of proteins was calculated from LFQ intensities as the ratio between drug doses and vehicle. […] Only kinases quantified with at least 4 unique peptides in the vehicle experiment were considered. Potential targets were further curated through manual inspection of dose-dependent reduction in MS/MS and unique peptide counts.

[9] = TNK1, 5 cell line mix lysate, Kinobeads ε, ref Reinecke et al. (2023)
[10] = TNK2, 5 cell line mix lysate, Kinobeads ε, ref Reinecke et al. (2023)
[11] = FLT3, 5 cell line mix lysate, Kinobeads ε, ref Reinecke et al. (2023)
[12] = IRAK4, 5 cell line mix lysate, Kinobeads ε, ref Reinecke et al. (2023)
[13] = MARK4, 5 cell line mix lysate, Kinobeads ε, ref Reinecke et al. (2023)
[14] = PKN2, 5 cell line mix lysate, Kinobeads ε, ref Reinecke et al. (2023)
[15] = PRKD2, 5 cell line mix lysate, Kinobeads ε, ref Reinecke et al. (2023)

Q: For `C[C@]12O[C@H](C[C@]1(O)CO)n1c3ccccc3c3c4c(c5c6ccccc6n2c5c31)CNC4=O` [Lestaurtinib], which EC50 ([1]; TNK1, 4 cell line mix lysate, Kinobeads y, ref Klaeger et al. (2017)) is on record?
A: The EC50 was […].

Q: What about the EC50 ([2]; TNK2, 4 cell line mix lysate, Kinobeads y, ref Klaeger et al. (2017)) of the same molecule?
A: The EC50 was […].

Q: What about the EC50 ([3]; FLT3, 4 cell line mix lysate, Kinobeads y, ref Klaeger et al. (2017)) of the same molecule?
A: The EC50 was […].

Q: And the EC50 ([4]; IRAK4, 4 cell line mix lysate, Kinobeads y, ref Klaeger et al. (2017))?
A: Its EC50 is […].

Q: What about the EC50 ([5]; MARK4, 4 cell line mix lysate, Kinobeads y, ref Klaeger et al. (2017)) of the same molecule?
A: Its EC50 is […].

Q: And the EC50 ([6]; PKN2, 4 cell line mix lysate, Kinobeads y, ref Klaeger et al. (2017))?
A: The EC50 was […].

T1 sequence (Q13535 whole entry): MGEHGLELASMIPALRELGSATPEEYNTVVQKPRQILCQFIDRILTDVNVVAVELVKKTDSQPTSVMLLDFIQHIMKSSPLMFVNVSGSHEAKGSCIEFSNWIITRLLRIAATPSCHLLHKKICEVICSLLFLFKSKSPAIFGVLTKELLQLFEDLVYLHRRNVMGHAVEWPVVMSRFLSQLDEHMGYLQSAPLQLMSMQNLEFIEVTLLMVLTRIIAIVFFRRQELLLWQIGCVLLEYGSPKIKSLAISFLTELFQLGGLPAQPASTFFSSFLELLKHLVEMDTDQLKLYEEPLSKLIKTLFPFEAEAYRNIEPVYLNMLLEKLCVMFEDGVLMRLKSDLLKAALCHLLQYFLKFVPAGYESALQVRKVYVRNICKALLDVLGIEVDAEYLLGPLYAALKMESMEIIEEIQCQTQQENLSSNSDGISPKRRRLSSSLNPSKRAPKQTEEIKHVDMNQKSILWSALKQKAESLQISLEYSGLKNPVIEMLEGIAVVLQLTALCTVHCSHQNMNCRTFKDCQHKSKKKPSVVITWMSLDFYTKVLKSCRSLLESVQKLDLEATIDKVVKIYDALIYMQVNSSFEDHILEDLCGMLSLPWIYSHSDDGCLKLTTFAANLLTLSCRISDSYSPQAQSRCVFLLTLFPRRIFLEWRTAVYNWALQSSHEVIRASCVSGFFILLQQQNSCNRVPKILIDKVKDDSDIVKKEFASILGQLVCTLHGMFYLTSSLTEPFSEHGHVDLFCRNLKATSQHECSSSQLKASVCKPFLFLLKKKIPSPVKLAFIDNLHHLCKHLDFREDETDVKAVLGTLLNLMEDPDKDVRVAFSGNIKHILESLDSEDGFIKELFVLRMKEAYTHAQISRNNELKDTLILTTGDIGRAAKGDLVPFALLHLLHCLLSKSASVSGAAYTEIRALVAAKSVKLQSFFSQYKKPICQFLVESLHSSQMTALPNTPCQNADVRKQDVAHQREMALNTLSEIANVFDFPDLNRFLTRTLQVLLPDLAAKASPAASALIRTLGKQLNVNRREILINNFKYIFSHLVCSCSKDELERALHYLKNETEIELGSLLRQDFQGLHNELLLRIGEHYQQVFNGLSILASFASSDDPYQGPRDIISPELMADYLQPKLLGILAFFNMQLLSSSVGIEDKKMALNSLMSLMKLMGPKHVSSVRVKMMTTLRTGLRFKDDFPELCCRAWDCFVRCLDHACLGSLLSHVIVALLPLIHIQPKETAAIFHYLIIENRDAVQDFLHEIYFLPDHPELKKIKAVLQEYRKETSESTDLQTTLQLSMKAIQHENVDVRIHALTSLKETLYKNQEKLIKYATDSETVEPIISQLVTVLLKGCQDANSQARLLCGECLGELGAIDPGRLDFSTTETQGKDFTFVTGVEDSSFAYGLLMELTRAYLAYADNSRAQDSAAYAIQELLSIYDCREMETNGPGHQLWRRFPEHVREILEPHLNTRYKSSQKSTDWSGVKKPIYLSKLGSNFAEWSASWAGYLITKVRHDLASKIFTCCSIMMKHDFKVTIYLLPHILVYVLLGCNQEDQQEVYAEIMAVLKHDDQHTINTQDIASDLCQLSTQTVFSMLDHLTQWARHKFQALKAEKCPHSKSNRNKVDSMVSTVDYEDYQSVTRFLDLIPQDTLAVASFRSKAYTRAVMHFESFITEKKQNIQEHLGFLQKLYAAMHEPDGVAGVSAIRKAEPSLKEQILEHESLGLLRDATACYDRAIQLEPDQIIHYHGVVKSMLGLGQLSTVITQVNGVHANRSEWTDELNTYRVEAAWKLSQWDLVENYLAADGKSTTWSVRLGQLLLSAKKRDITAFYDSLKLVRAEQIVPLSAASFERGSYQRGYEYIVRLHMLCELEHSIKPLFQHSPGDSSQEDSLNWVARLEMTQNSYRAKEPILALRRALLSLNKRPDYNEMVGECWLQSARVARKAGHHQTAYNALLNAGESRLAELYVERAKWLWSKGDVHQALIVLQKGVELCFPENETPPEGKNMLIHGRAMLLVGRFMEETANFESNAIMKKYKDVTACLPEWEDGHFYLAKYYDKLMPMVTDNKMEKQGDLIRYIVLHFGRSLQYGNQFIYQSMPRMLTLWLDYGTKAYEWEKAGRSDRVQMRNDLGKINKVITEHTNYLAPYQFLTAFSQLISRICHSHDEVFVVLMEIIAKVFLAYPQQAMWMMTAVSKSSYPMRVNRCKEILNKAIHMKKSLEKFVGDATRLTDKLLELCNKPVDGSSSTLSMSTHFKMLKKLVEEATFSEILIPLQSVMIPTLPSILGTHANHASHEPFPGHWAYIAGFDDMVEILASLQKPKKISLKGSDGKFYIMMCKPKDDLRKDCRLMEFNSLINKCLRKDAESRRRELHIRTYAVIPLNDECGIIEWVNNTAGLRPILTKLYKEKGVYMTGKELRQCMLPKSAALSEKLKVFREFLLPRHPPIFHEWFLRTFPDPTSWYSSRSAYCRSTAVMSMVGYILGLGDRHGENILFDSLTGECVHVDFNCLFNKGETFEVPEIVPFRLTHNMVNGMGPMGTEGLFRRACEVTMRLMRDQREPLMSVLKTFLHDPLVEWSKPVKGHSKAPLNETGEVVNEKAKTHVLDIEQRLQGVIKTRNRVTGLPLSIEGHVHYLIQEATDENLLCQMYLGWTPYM
T1 sequence (Q8WXE1 whole entry partner): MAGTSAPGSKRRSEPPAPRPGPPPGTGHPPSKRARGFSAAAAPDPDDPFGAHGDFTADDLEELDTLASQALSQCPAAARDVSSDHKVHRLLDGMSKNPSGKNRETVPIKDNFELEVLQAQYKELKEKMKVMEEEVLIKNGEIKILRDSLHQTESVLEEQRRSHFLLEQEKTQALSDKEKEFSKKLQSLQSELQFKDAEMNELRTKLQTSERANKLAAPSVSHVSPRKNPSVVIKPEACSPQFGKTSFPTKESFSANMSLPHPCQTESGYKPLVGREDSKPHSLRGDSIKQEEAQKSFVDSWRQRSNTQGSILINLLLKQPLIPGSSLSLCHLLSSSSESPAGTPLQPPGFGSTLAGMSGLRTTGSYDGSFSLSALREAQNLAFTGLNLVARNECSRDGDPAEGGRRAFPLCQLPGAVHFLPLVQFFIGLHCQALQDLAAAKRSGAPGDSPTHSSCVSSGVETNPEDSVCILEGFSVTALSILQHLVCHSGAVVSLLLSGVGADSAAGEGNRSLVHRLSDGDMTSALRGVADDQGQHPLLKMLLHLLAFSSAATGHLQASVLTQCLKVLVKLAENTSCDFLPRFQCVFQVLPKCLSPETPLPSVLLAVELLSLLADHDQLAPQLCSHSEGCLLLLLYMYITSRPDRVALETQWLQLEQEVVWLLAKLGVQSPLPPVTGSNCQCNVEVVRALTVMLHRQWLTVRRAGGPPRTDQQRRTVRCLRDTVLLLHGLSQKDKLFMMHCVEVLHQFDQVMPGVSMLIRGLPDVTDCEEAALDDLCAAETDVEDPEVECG

Q: Which results are given for `COc1cc(N2CCC(N3CCN(C)CC3)CC2)ccc1Nc1ncc(Cl)c(Nc2ccccc2P(C)(C)=O)n1` [Brigatinib]?
A: EC50 [1, 9]: 1.59 nM; pKDapp [1, 9]: 9.16; Kd ([1]; TNK1, 5 cell line mix lysate, Kinobeads ε, ref Reinecke et al. (2023), read-out: KDapp): 0.69 nM; EC50 [2, 10]: 5.93 nM; pKDapp [2, 10]: 8.57; Kd ([2]; TNK2, 5 cell line mix lysate, Kinobeads ε, ref Reinecke et al. (2023), read-out: KDapp): 2.67 nM; EC50 [3, 11]: 142 nM; pKDapp [3, 11]: 7.12; Kd ([3]; FLT3, 5 cell line mix lysate, Kinobeads ε, ref Reinecke et al. (2023), read-out: KDapp): 76.3 nM; EC50 [4, 12]: 492 nM; pKDapp [4, 12]: 6.42; Kd ([4]; IRAK4, 5 cell line mix lysate, Kinobeads ε, ref Reinecke et al. (2023), read-out: KDapp): 381 nM; EC50 [5, 13]: 232 nM; pKDapp [5, 13]: 6.71; Kd ([5]; MARK4, 5 cell line mix lysate, Kinobeads ε, ref Reinecke et al. (2023), read-out: KDapp): 193 nM; EC50 [6, 14]: 1040 nM; pKDapp [6, 14]: 6.07; Kd ([6]; PKN2, 5 cell line mix lysate, Kinobeads ε, ref Reinecke et al. (2023), read-out: KDapp): 852 nM; EC50 [7, 15]: 361 nM; pKDapp [7, 15]: 6.62; Kd ([7]; PRKD2, 5 cell line mix lysate, Kinobeads ε, ref Reinecke et al. (2023), read-out: KDapp): 238 nM

Q: For `Nc1nn2cc(F)cnc2c1C(=O)Nc1cncc(F)c1N1CCC(C(=O)N2CCN(C3COC3)CC2)CC1` [Gartisertib], which Kd ([8]; AsPC-1 lysate, read-out: KDapp) is on record?
A: Its Kd is 318 nM.

Q: With `CNCc1ccc(-c2cc(-c3nc(-c4ccc(S(=O)(=O)C(C)C)cc4)cnc3N)on2)cc1` [Berzosertib] as the molecule, how does the “affinity to ATR over off-targets” value ([8]; Berzosertib: vs. all except ACVR2, Elimusertib: vs. PIK3C2A, Ceralasertib: vs. CDK7) read?
A: Its value is > 10 fold.
